Values of other authors in PubChem BioAssay AID1259409 (Chemical Carcinogenesis Research Information System (CCRIS), 2018).

System: rodent chemically induced tumor inhibition, incidence and multiplicity
Experiment: CCRIS tumor inhibitor studies

| SMILES | tumour outcome (control, treated, inhibition, significance) (Carcinogen: 3'-METHYL-4-DIMETHYLAMINOAZOBENZENE, 55-80-1, Dose [Inhibitor]: 118 UG SELENIUM AS HIGH SELENIUM YEAST/GM IN DIET DAILY STARTING 1 WK PRIOR TO START OF CARCINOGEN TREATMENT AND CONTINU, Route [Inhibitor]: ORAL, Species: RAT, Strain/Sex: SPRAGUE-DAWLEY/MALE, Target Tissue: Type of Lesion: LIVER: ADENOCARCINOMA, Dose [Carcinogen]: 0.05% IN DIET DAILY FOR 8 WK, Promoter: NONE USED) | tumour outcome (control, treated, inhibition, significance) (Carcinogen: 4-(METHYLNITROSAMINO)-1-(3-PYRIDYL)-1-BUTANONE, 64091-91-4, Dose [Inhibitor]: 0, 3.75 PPM IN DIET FOR 3 WK BEGINNING 1 WK PRIOR TO CARCINOGEN DOSE (STUDY DURATION: 18 WK), Route [Inhibitor]: ORAL, Species: MOUSE, Strain/Sex: STRAIN-A/FEMALE, Target Tissue: Type of Lesion: LUNG: TUMOR, Dose [Carcinogen]: 10 UMOL IN 0.1 ML SALINE ONCE, Promoter: NONE USED) | tumour outcome (control, treated, inhibition, significance) (Carcinogen: 4-(METHYLNITROSAMINO)-1-(3-PYRIDYL)-1-BUTANONE, 64091-91-4, Dose [Inhibitor]: 0, 3.75 PPM IN DIET FOR 15 WK BEGINNING 1 WK POST CARCINOGEN DOSE (STUDY DURATION: 18 WK), Route [Inhibitor]: ORAL, Species: MOUSE, Strain/Sex: STRAIN-A/FEMALE, Target Tissue: Type of Lesion: LUNG: TUMOR, Dose [Carcinogen]: 10 UMOL IN 0.1 ML SALINE ONCE, Promoter: NONE USED) | tumour outcome (control, treated, inhibition, significance) (Carcinogen: 7,12-DIMETHYLBENZ[A]ANTHRACENE (DMBA) [57-97-6], Dose [Inhibitor]: 20 UG/D GIVEN 2 WK BEFORE DMBA AND DAILY FOR 1 WK (STUDY DURATION: 120 D), Route [Inhibitor]: ORAL (GAVAGE), Species: RAT, Strain/Sex: WISTAR/FEMALE (12,?)/(12,12), Target Tissue: Type of Lesion: MAMMARY GLAND: CARCINOMA, Dose [Carcinogen]: 12 MG ONCE (STUDY DURATION: 120 D)) | tumour outcome (control, treated, inhibition, significance) (Carcinogen: 7,12-DIMETHYLBENZ[A]ANTHRACENE, 57-97-6, Dose [Inhibitor]: 0, 0.2 PPM IN DIET BEGINNING 3 D PRIOR TO CARCINOGEN DOSE AND CONTINUING FOR 8 MO (STUDY DURATION: 8 MO), Route [Inhibitor]: ORAL, Species: MOUSE, Strain/Sex: BALB/FEMALE, Target Tissue: Type of Lesion: MAMMARY GLAND: ADENOCARCINOMA, Dose [Carcinogen]: 1 MG/WK FOR 6 WK, Promoter: NONE USED) | tumour outcome (control, treated, inhibition, significance) (Carcinogen: 7,12-DIMETHYLBENZ[A]ANTHRACENE, 57-97-6, Dose [Inhibitor]: 0, 2 PPM IN DIET BEGINNING 3 D PRIOR TO CARCINOGEN DOSE AND CONTINUING FOR 8 MO (STUDY DURATION: 8 MO), Route [Inhibitor]: ORAL, Species: MOUSE, Strain/Sex: BALB/FEMALE, Target Tissue: Type of Lesion: MAMMARY GLAND: ADENOCARCINOMA, Dose [Carcinogen]: 1 MG/WK FOR 6 WK, Promoter: NONE USED) | tumour outcome (control, treated, inhibition, significance) (Carcinogen: AZOXYMETHANE [25843-45-2], Dose [Inhibitor]: 10 PPM IN DIET FOR 56 WK BEGINNING 2 WK PRIOR TO FIRST CARCINOGEN DOSE (STUDY DURATION: 56 WK), Route [Inhibitor]: ORAL, Species: RAT, Strain/Sex: F344/MALE, Target Tissue: Type of Lesion: COLON: ADENOMA OR ADENOCARCINOMA, Dose [Carcinogen]: 15 MG/KG BW 1X/WK FOR 2 WK (STUDY DURATION: 56 WK), Promoter: NONE) | tumour outcome (control, treated, inhibition, significance) (Carcinogen: AZOXYMETHANE [25843-45-2], Dose [Inhibitor]: 15 PPM IN DIET FOR 56 WK BEGINNING 2 WK PRIOR TO FIRST CARCINOGEN DOSE (STUDY DURATION: 56 WK), Route [Inhibitor]: ORAL, Species: RAT, Strain/Sex: F344/MALE, Target Tissue: Type of Lesion: COLON: ADENOMA OR ADENOCARCINOMA, Dose [Carcinogen]: 15 MG/KG BW 1X/WK FOR 2 WK (STUDY DURATION: 56 WK), Promoter: NONE) | tumour outcome (control, treated, inhibition, significance) (Carcinogen: N-METHYL-N-NITROSOUREA, 684-93-5, Dose [Inhibitor]: 5 PPM IN DIET DAILY FOR 128 D STARTING 7 D AFTER CARCINOGEN TREATMENT AND CONTINUING FOR DURATION OF STUDY (STUDY DURATI, Route [Inhibitor]: ORAL, Species: RAT, Strain/Sex: SPRAGUE-DAWLEY/FEMALE, Target Tissue: Type of Lesion: MAMMARY GLAND: CARCINOMA, Dose [Carcinogen]: 50 MG/KG BW IN ACIDIFIED SALINE (PH 4.0) ONCE AT AGE 50 D, Promoter: NONE USED) | tumour outcome (control, treated, inhibition, significance) (Carcinogen: N-METHYL-N-NITROSOUREA, 684-93-5, Dose [Inhibitor]: 6 PPM IN DIET DAILY FOR 128 D STARTING 7 D AFTER CARCINOGEN TREATMENT AND CONTINUING FOR DURATION OF STUDY (STUDY DURATI, Route [Inhibitor]: ORAL, Species: RAT, Strain/Sex: SPRAGUE-DAWLEY/FEMALE, Target Tissue: Type of Lesion: MAMMARY GLAND: CARCINOMA, Dose [Carcinogen]: 50 MG/KG BW IN ACIDIFIED SALINE (PH 4.0) ONCE AT AGE 50 D, Promoter: NONE USED) | tumour outcome (control, treated, inhibition, significance) (Carcinogen: NONE USED, Dose [Inhibitor]: 1 PPM IN DIET DAILY STARTING AT AGE 13.8 MO AND CONTINUING FOR LIFE (STUDY DURATION: LIFE), Route [Inhibitor]: ORAL, Species: MOUSE, Strain/Sex: C3H/FEMALE, Target Tissue: Type of Lesion: MAMMARY GLAND: ADENOCARCINOMA, Promoter: NONE USED) | tumour outcome (control, treated, inhibition, significance) (Carcinogen: NONE USED, Dose [Inhibitor]: 1 PPM IN DIET DAILY STARTING AT WEANING AND CONTINUING FOR LIFE (STUDY DURATION: LIFE), Route [Inhibitor]: ORAL, Species: MOUSE, Strain/Sex: C3H/FEMALE, Target Tissue: Type of Lesion: MAMMARY GLAND: ADENOCARCINOMA, Promoter: NONE USED) | tumour outcome (control, treated, inhibition, significance) (Carcinogen: NONE USED, Dose [Inhibitor]: 1 PPM IN DIET DAILY STARTING AT WEANING AND CONTINUING THROUGH AGE 13.8 MO FOL LOWED BY CONTROL DIET FOR LIFE (STUDY DUR, Route [Inhibitor]: ORAL, Species: MOUSE, Strain/Sex: C3H/FEMALE, Target Tissue: Type of Lesion: MAMMARY GLAND: ADENOCARCINOMA, Promoter: NONE USED) | tumour outcome (control, treated, inhibition, significance) (Carcinogen: 7,12-DIMETHYLBENZ[A]ANTHRACENE, 57-97-6, Dose [Inhibitor]: 0.06 MMOL/G DIET DAILY FOR 17 WK STARTING 1 WK PRIOR TO CARCINOGEN TREATMENT AND CONTINUING THROUGH THE END OF THE STUDY, Route [Inhibitor]: ORAL, Species: RAT, Strain/Sex: SPRAGUE-DAWLEY/FEMALE, Target Tissue: Type of Lesion: MAMMARY GLAND: TUMOR, Dose [Carcinogen]: 12 MG IN 1 ML OLIVE OIL ONCE, Promoter: NONE USED) | tumour outcome (control, treated, inhibition, significance) (Carcinogen: N-METHYL-N'-NITRO-N-NITROSOGUANADINE, 70-25-7, Dose [Inhibitor]: 0, 150 MG/KG BW 1/2 D FOR 26 WK BEGINNING POST CARCINOGEN TREATMENT (STUDY DURATION: 52 WK), Route [Inhibitor]: SUBCUTANEOUS, Species: RAT, Strain/Sex: WISTAR/MALE, Target Tissue: Type of Lesion: STOMACH: ADENOCARCINOMA, Dose [Carcinogen]: 25 UG/ML IN DRINKING WATER FOR 25 WK, Promoter: AMMONIUM ACETATE, 631-61-8, SODIUM HYPOCHLORITE, 7681-52-9, Promoter: AMMONIUM ACETATE, 631-61-8, SODIUM HYPOCHLORITE, 7681-52-9) | tumour outcome (control, treated, inhibition, significance) (Carcinogen: N-NITROSOBIS(2-OXOPROPYL)AMINE [60559-38-4], Dose [Inhibitor]: 2% IN DIET FOR 27 WK BEGINNING IMMEDIATELY POST LAST CARCINOGEN DOSE (STUDY DURATION: 32 WK), Route [Inhibitor]: ORAL, Species: HAMSTER, Strain/Sex: SYRIAN/FEMALE, Target Tissue: Type of Lesion: PANCREAS: ADENOCARCINOMA, Dose [Carcinogen]: 10 MG/KG BW 1X/WK FOR 5 WK (STUDY DURATION: 32 WK), Promoter: NONE) |
| --- | --- | --- | --- | --- | --- | --- | --- | --- | --- | --- | --- | --- | --- | --- | --- | --- |
| C[Se]CCC(N)C(=O)O (stereo unspecified) | 11/12 (92%), 9/14 (64%), 30%, p 0.04 | 100%, 96%, 4%, not significant | 100%, 100%, 0%, not significant | 33%, 0%, 100% | 12/31 (39%), 6/21 (29%), 26%, not calculated | 12/31 (39%), 6/23 (26%), 33%, not calculated | 76%, 64%, 16%, not significant | 76%, 89%, -17%, not significant | 90%, 95%, -6%, not significant | 90%, 80%, 11%, not significant | 20/26 (77%), 12/26 (46%), 40%, p<0.05 | 20/26 (77%), 7/26 (27%), 65%, p<0.005 | 20/26 (77%), 18/26 (69%), 10%, not significant |  |  |  |
| CSCC[C@H](N)C(=O)O |  |  |  |  |  |  |  |  |  |  |  |  |  | 59%, 72%, -22%, not calculated | 19/19 (100%), 9/18 (50%), 50%, p<0.01 | 20/28 (71.4%), 7/19 (36.8%), 48%, p<0.05 |
